Source: patent US9579380B2, “Microporation of tissue for delivery of bioactive agents” (priority 1996, dated 2017)

Key:
[1] = Morphine delivery through porated volar forearm with positive pressure gradient, venous blood morphine; conditions: solution on porated volar forearm
Description: A solution of morphine is applied to a porated area on the volar forearm of the human subjects. A positive pressure gradient is used to provide a basal delivery rate of the morphine into the body, as determined by assay of venous blood draws at appropriate time intervals for the presence of morphine. […] Upon demand, an additional pressure bolus is applied to result in a spike in the delivery of the morphine. The additional pressure bolus is achieved in one test by use of ultrasound; or in another experiment by the use of a pressure spike.

[2] = test system: healthy male volunteers; experiment: Alprostadil delivery through micropores on the penis shaft with ultrasonic transducer, clinical responses; assay type: in vivo, human; conditions: both subjects
Description: Alprostadil, or PGE1, is a prostaglandin used therapeutically to treat male erectile dysfunction via it's vasodilator behavior. The standard delivery mode for this drug is a direct injection into the base of the penis or via a suppository inserted into the urethra. A set of experiments were conducted with two healthy male volunteers. […] A concentrated solution of alprostadil was placed in a small reservoir patch placed on the poration site, an ultrasonic transducer was then placed on the top of the reservoir and activated and the subject's erectile and other clinical responses were recorded on video tape. Both subjects developed a significant amount of engorgement of the penis, estimated as achieving 70% of more of a full erection at the dose applied. In addition, a malar flush response to the systemic levels of the drug delivered was observed. […] Both the erectile response and the malar flush provide evidence of the delivery of a clinically active amount of the drug, a well know vasodilator.

[3] = test system: healthy non-diabetic subject; experiment: Insulin delivery through porated skin, finger stick blood glucose; assay type: in vivo, human
Text: Insulin, like many compounds normally present in the healthy individual, is a polypeptide which must be maintained in individuals, such as diabetics who need exogenous insulin, at both a basal level and be given in a pulsatile bolus fashion in response to meals and the subject's activity levels. Currently this is achieved via subcutaneous injections of fast acting and slow acting formulations. Because of the molecular weight of insulin, typically ˜6000, it is not able to be delivered at clinically useful levels with traditional transdermal or transmucosal methods. However, by opening the micropores through the barrier layers of the skin or mucosa, a clear path is provided allowing the delivery of the insulin into the viable tissues wherein the interstitial fluid present in these tissues will allow diffusion (including osmotically driven) of the insulin to and into the lymph system and capillary bed, delivering clinically useful amounts. A concentrated insulin solution containing 3500 IU/ml of recombinant human insulin purchased from Boehringer-Mannhein Co., was applied in a reservoir to a porated of the subject's skin on the volar forearm covering 4 square cm. The healthy, person, non-diabetic, subject fasted for 14 hours prior to the start of the experiment. Intravenous and finger stick blood samples were drawn periodically prior to and after the delivery phase began and assayed for glucose, insulin and C-peptide.
The use of liposomes, lipid complexes, microspheres including nanospheres, PEGellated compounds (compounds combined with polyethylene glycol) and other microparticles as part of a drug delivery system is well developed for many different specific applications. In particular, when dealing with a compound which is easily broken down by the endogenous components in the body's tissues such as protease, nuclease, or carbohydrase enzymes in the skin, tissues, the macrophages or other cells present in the blood stream or lymph, increases in bio-availability and/or sustained […]. A repeat of this procedure with the addition of ultrasound operating at 44 khz, and 0.2 watts/square cm indicated a more rapid delivery of the insulin as evidenced by the subject's glucose levels which dropped from 109 mg/dl to 78 mg/dl less than 30 minutes after the delivery began. As in the case of example 45, for heparin delivery, a low current iontophoretic system can be coupled with the micropores to facilitate a greater flux rate and provide the ability to modulate this flux rate by varying the current, allowing a delivery on demand type of system to be built. Previous work with insulin has typically shown that relatively high iontophoretic currents are required to overcome the strong barrier properties of the intact stratum corneum. […]

[4] = test system: volar forearm of a healthy volunteer; experiment: Heparin delivery through micropores, passive or with iontophoresis, with microscopic examination of the site
Description: A heparin solution was applied to skin porated to a depth of approximately 100 μm, allowing either passive diffusion or coupled with iontophoresis (about 1 mA/cm^2) that was applied for a sufficient period of time to transport the heparin through the micropores into the underlying tissues. […] An experiment was conducted wherein a site on the volar forearm of a healthy volunteer was prepared by creating a matrix of 36 micropores within a 1 square cm area. A small reservoir containing a sodium heparin solution and the negative electrode for an iontophoretic system was attached to the site. The positive electrode was attached to the subject's skin some distance away using a hydrogel electrode obtained from Iomed, a commercial supplier of iontophoretic systems. The system was run for ten minutes at 0.2 milliamperes per square cm.

[5] = human

CN1CC[C@]23c4c5ccc(O)c4O[C@H]2[C@@H](O)C=C[C@H]3[C@H]1C5 [morphine]
basal level of morphine in venous blood [1]: 3 to 6 ng/mL

CCCCC[C@H](O)/C=C/[C@H]1[C@H](O)CC(=O)[C@@H]1CCCCCCC(=O)O [alprostadil, Alprostadil]
engorgement of the penis, estimated share of a full erection ([2]; 12 to 36 micropores, roughly 100 microns deep, on 1 square cm, concentrated solution plus ultrasonic transducer): ≥ 70% | malar flush response to systemic levels of the drug ([2]; over a 30 to 60 minute delivery period): profound malar flush

insulin
time to depression of glucose levels ([3]; 3500 IU/ml solution on 4 square cm porated volar forearm, passive): approximately 4 hours | finger stick blood glucose after depression ([3]; 3500 IU/ml solution on 4 square cm porated volar forearm, passive, fasted 14 hours, from 100 mg/dl at the start, over a ten minute cycle): 67 mg/dL | time to glucose drop after delivery began ([3]; with ultrasound at 44 khz and 0.2 watts/square cm): less than 30 minutes | glucose level after drop ([3]; with ultrasound at 44 khz and 0.2 watts/square cm, from 109 mg/dl): 78 mg/dL

heparin
clotting of red cells in collected ISF ([4]; 36 micropores in 1 square cm, iontophoresis 0.2 milliamperes per square cm for ten minutes): no clotting took place | microscopic examination of the site ([4]; 36 micropores in 1 square cm, sodium heparin solution, iontophoresis 0.2 milliamperes per square cm for ten minutes): vasodilation of the capillaries | microscopic examination of the in vivo site ([4]; skin porated to approximately 100 μm, passive diffusion and iontophoresis (about 1 mA/cm^2)): increased capillary dilation and permeability

CN(C)c1ccc2nc3ccc(=[N+](C)C)cc-3sc2c1 [methylene blue, Methylene blue]
lag time of pulse of indicator molecules on application of sonic energy [5]: < 0.1 s | shutoff lag of pulse of indicator molecules on turning off sonic energy [5]: < 0.1 s | level of dye solution in receiver medium (no visual indication of dye flux) ([5]; 5 min): < 0.0015 % (v/v)
